pIC50: −log10 of the molar value. “Also recorded” adds a separate entry of the source. Where two headings read alike, the source gives them in different places.
What was measured:
5-HT6 receptor = 5-HT6 receptor (Homo sapiens, UniProt P50406); assay: 5-HT6 cAMP recruitment assay; format: cell-based; conditions: read-out: IC50, antagonism of the 5-HT6 receptor
[1] = test system: other dopamine receptor subtypes; assay: DiscoverX β-arrestin assay, other dopamine receptors; format: cell-based; conditions: FIG. 1A
Description: For a secondary-screen and selectivity assays, DAR PathHunter®-arrestin GPCR cell lines from DiscoverX (Fremont, CA) were used. In the D2 DAR PathHunter®-arrestin GPCR cell line, the D2 DAR is overexpressed and fused with a small 42-amino acid fragment of β-galactosidase called ProLink™ on a CHO cellular background expressing a fusion protein of β-arrestin and a larger N-terminal deletion mutant of β-galactosidase (“enzyme acceptor”). When the D2 DAR is activated by dopamine, it stimulates binding of β-arrestin to the ProLink-tagged DAR and the two complementary parts of β-galactosidase form a functional enzyme. When substrate (PathHunter™ Detection reagent) is added, β-galactosidase hydrolyzes it and generates a chemiluminescent signal.

168 unique GPCRs = assay: DiscoverX gpcrMAX β-arrestin recruitment assay panel; format: cell-based; conditions: 30 μM
Procedure: (§1) Cmp. 1 was tested as both an agonist (FIG. 5A) or an antagonist (FIG. 5B) at a single high concentration (30 μM) on 168 different GPCRs in the DiscoverX gpcrMAX™ β-arrestin recruitment assay panel (FIGS. 5A and 5B). Assay results are presented as the mean percent activation of indicated GPCRs (for n=2 replicates). For a full description of the DiscoverX gpcrMAX™-GPCR assay panel and methods (see: http://www.DiscoverX.com). […] Data were provided by the National Institute of Mental Health (NIMH) Psychoactive Drug Screening Program (PDSP) (University of North Carolina, Chapel Hill, NC). For experimental details including radioligands used and associated Kd values for each individual target, refer to the PDSP website: http://pdsp.med.unc.edu/. While Cmp. […] The 5-HT6 receptor was not present in the functional panels, however, subsequent testing found Cmp.

D2 DAR [2] = biological target: T1, D2 DAR (Homo sapiens, UniProt P14416); assay: Go BRET activation assay, D2 DAR; format: cell-based; conditions: FIG. 3B right
Procedure: Briefly, HEK293T cells transiently expressing either the D2 DAR or D3 DAR and GαoA-Rluc8, untagged-β1, and mVenus-γ2 were harvested with EBSS, plated in 96-well white plates at 20,000 cells/well in DPBS and incubated at RT for 45 min. […] BRET signal was determined by quantifying and calculating the ratio of the light emitted by mVenus (525 nm) over that emitted by RLuc8 (485 nm) using a PHERAstar FSX Microplate Reader (BMG Labtech).

[3] = test system: 45 GPCRs, ion channels, and neurotransmitter transporters; assay: PDSP radioligand binding panel; conditions: 10 μM
Procedure: as §1

D2 DAR [4] = biological target: T1, D2 DAR; assay: BRET β-arrestin recruitment assay, D2 DAR; format: cell-based; conditions: FIG. 3A right
Procedure: BRET β-arrestin recruitment assay: As an orthogonal test using an unrelated assay of D2- or D3 DAR-mediated β-arrestin recruitment, an arrestin BRET assay was conducted. HEK293T cells transiently expressing D2-Rluc8, Arrestin3-mvenus and GRK2, or D3-Rluc8, Arrestin3-mvenus, and GRK3 were harvested with EBSS, plated in 96-well plates in Dulbecco's phosphate-buffered saline (DPBS) and incubated at rt for 45 min. […] BRET signal was determined by quantifying and calculating the ratio of the light emitted by mVenus (525 nm) over that emitted by RLuc8 (485 nm) using a PHERAstar FSX Microplate Reader (BMG Labtech).

D2 DAR [5] = biological target: T1, D2 DAR; assay: DiscoverX D2 DAR β-arrestin recruitment assay; format: cell-based; set-up: host or cells: CHO; conditions: EC80 concentration of DA (1 μM)
Method in brief: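 CHO cells co-expressing ProLink-tagged D2 DAR and enzyme-acceptor-fused β-arrestin (PathHunter enzyme-fragment complementation). Receptor activation recruits β-arrestin, reconstituting β-galactosidase; detection reagent hydrolysis gives chemiluminescent read-out. Same PathHunter format used for other dopamine receptor subtypes.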

D2 DAR [6] = biological target: T1, D2 DAR; assay: ERK1/2 phosphorylation assay, D2 DAR; format: cell-based; set-up: host or cells: CHO; conditions: FIG. 3D right
Procedure: ERK1/2 Phosphorylation assay: ERK1/2 phosphorylation was measured using the Alphascreen SureFire Ultra ERK kit (PerkinElmer, Waltham, USA). CHO-K1 cells stably expressing either the D2 DAR or D3 DAR were seeded into 384-well small volume white plates at a density of 40,000 cells/well in serum-free Ham's F12 media overnight. […] The plate was shaken for 10 min at RT, followed by the addition of Surefire activation buffer, Surefire reaction buffer, Alphascreen acceptor beads, and Alphascreen donor beads in ratios specified by the manufacturer. The plate was incubated in the dark for 2 h, then read using a PHERAstar FSX Microplate Reader (BMG Labtech).

D3 DAR = D3 DAR (Homo sapiens, UniProt P35462); assay: Functional curve-shift assays using the DiscoverX β-arrestin recruitment assay; format: cell-based; set-up: host or cells: CHO
Description: To further assess the mechanism of action of Cmp. […] 1 (FIGS. 4B and 4D). […] Average curves are shown (mean±SEM from at least 3 experiments each performed in triplicate). […] In contrast, increasing concentrations of Cmp.
1. FIG. 6A-C panels show concentration-response curves of dopamine in the absence or presence of increasing concentrations of compound. Cmp. […] 18 (FIG. 6A), Cmp. 5 (FIG. 6B), and Cmp. 17 (FIG. 6C), respectively. Average curves are shown (mean±SEM from at least 3 experiments, each performed in triplicate).
A D3 DAR β-arrestin cell line from DiscoverX (Fremont, CA) was used as described in the protocol below (Table 2). A CHO cell line engineered to overexpress the D3 DAR fused with a small 42-amino acid fragment of β-galactosidase called ProLink™ and a fusion protein consisting of β-arrestin and a larger N-terminal deletion mutant of β-galactosidase was used (DiscoverX catalogue number 93-0579C2). When the D3 DAR is activated by dopamine, it stimulates binding of β-arrestin to ProLink-tagged D3 DARs, and the two complementary parts of β-galactosidase form a functional enzyme. When substrate (PathHunter® Detection reagent, DiscoverX 93-0001) is added, β-galactosidase hydrolyzes it and generates a chemiluminescent signal.

D3 DAR, sequence (P35462 whole entry): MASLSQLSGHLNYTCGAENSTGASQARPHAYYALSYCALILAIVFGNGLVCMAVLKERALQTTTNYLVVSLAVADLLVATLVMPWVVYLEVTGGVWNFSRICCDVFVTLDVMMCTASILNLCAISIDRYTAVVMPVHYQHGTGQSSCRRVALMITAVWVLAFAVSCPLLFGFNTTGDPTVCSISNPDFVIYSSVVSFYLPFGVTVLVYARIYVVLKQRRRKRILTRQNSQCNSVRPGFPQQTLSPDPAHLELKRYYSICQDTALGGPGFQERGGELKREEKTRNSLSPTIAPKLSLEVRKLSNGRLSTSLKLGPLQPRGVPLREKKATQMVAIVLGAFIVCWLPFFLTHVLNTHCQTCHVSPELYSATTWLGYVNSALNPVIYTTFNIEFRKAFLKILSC
T1 sequence (P14416 whole entry): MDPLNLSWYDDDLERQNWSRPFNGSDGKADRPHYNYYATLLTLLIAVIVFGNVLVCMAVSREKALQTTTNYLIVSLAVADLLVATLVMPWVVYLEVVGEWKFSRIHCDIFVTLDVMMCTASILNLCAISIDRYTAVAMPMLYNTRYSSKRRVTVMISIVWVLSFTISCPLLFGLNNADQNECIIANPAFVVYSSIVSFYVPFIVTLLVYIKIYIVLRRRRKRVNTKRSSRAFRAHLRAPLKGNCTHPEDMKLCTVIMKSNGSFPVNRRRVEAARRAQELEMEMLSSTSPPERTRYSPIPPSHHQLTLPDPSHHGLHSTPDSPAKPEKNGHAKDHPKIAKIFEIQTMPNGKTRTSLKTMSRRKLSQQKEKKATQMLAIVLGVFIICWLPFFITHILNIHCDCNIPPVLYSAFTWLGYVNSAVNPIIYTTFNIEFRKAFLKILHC
5-HT6 receptor, sequence (P50406 whole entry): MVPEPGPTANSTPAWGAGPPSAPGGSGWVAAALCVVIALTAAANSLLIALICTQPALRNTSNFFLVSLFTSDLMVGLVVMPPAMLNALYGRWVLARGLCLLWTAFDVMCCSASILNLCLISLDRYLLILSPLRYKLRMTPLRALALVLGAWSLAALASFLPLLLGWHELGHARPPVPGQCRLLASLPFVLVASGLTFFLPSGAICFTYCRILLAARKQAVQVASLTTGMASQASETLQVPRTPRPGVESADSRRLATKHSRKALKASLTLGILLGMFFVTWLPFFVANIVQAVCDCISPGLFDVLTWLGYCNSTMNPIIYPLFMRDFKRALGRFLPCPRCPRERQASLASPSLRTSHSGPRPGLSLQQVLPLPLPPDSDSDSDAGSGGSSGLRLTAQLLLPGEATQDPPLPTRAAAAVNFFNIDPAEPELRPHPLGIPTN

SMILES: Cc1ccc(NS(=O)(=O)c2c(C)[nH]c(C)c2C(=O)N2CCCC2)cc1Cl [Cmp. 1]
- pIC50 (5-HT6 receptor): < 4.30
- activity at other dopamine receptor subtypes [1]: no activity
- functional activity at the H1 receptor in the functional panels (168 unique GPCRs; H1 receptor): no functional activity
- agonist activity in gpcrMAX panel (168 unique GPCRs; agonist mode): lacked agonist activity at all 168 GPCRs
- antagonist activity in gpcrMAX panel (168 unique GPCRs; antagonist mode): the only GPCR that was antagonized was the D3 DAR
- antagonist activity at the D2 DAR, Go activation (D2 DAR [2]): lacked antagonist activity
- off-target affinity / displacement in radioligand binding panel [3]: limited off-target affinity; also recorded: minimal displacement at only the H1 histamine and 5-HT6 serotonin receptors
- antagonist activity at the D2 DAR, BRET β-arrestin (D2 DAR [4]): lacked antagonist activity
- D2 DAR Imax (D2 DAR [5]): NA (“NA” indicates not active)
- antagonist activity at the D2 DAR, pERK (D2 DAR [6]): lacked antagonist activity
- pIC50 (D3 DAR; agonist dopamine, read-out: Functional IC50 for decreasing the Emax of dopamine): 4.77
- pIC50 (D3 DAR; agonist pramipexole, read-out: Functional IC50 for decreasing the Emax of pramipexole): 4.85
- mode of antagonism in curve-shift assays (D3 DAR; versus agonist (dopamine, pramipexole)): behaves in a non-competitive manner

Reference: patent US20240336604A1 (THE UNITED STATES OF AMERICA, AS REPRESENTED BY THE …, priority 2021, published 2024)
